Source: BigSolDB 2.1

N#CCc1ccc([N+](=O)[O-])cc1
Conditions	solubility (mole fraction)
in 1,4-dioxane, 288.15 K	0.0461
in 1,4-dioxane, 293.15 K	0.0567
in 1,4-dioxane, 298.15 K	0.0715
in 1,4-dioxane, 303.15 K	0.0888
in 1,4-dioxane, 308.15 K	0.109
in 1,4-dioxane, 313.15 K	0.134
in 1,4-dioxane, 318.15 K	0.161
in 1,4-dioxane, 323.15 K	0.193
in 1,4-dioxane, 328.15 K	0.232
in 1,4-dioxane, 333.15 K	0.283
in 2-butanone, 278.15 K	0.0458
in 2-butanone, 283.15 K	0.0534
in 2-butanone, 288.15 K	0.0617
in 2-butanone, 293.15 K	0.0717
in 2-butanone, 298.15 K	0.0828
in 2-butanone, 303.15 K	0.0953
in 2-butanone, 308.15 K	0.109
in 2-butanone, 313.15 K	0.126
in 2-butanone, 318.15 K	0.144
in 2-butanone, 323.15 K	0.166
in 2-butanone, 328.15 K	0.189
in 2-butanone, 333.15 K	0.216
in acetic acid, 293.15 K	0.014
in acetic acid, 298.15 K	0.0166
in acetic acid, 303.15 K	0.0195
in acetic acid, 308.15 K	0.0231
in acetic acid, 313.15 K	0.0272
in acetic acid, 318.15 K	0.0319
in acetic acid, 323.15 K	0.0375
in acetic acid, 328.15 K	0.0438
in acetic acid, 333.15 K	0.0516
in acetone, 278.15 K	0.057
in acetone, 283.15 K	0.0658
in acetone, 288.15 K	0.0753
in acetone, 293.15 K	0.0859
in acetone, 298.15 K	0.0974
in acetone, 303.15 K	0.111
in acetone, 308.15 K	0.126
in acetone, 313.15 K	0.143
in acetone, 318.15 K	0.162
in acetone, 323.15 K	0.183
in acetone, 328.15 K	0.206
in acetonitrile, 278.15 K	0.0361
in acetonitrile, 283.15 K	0.0437
in acetonitrile, 288.15 K	0.0519
in acetonitrile, 293.15 K	0.0628
in acetonitrile, 298.15 K	0.0749
in acetonitrile, 303.15 K	0.0899
in acetonitrile, 308.15 K	0.105
in acetonitrile, 313.15 K	0.124
in acetonitrile, 318.15 K	0.145
in acetonitrile, 323.15 K	0.169
in acetonitrile, 328.15 K	0.196
in acetonitrile, 333.15 K	0.228
in cyclohexane, 283.15 K	9.17e-05
in cyclohexane, 288.15 K	0.000111
in cyclohexane, 293.15 K	0.000134
in cyclohexane, 298.15 K	0.000166
in cyclohexane, 303.15 K	0.000209
in cyclohexane, 308.15 K	0.000258
in cyclohexane, 313.15 K	0.000327
in cyclohexane, 318.15 K	0.000409
in cyclohexane, 323.15 K	0.000505
in cyclohexane, 328.15 K	0.000639
in cyclohexane, 333.15 K	0.000822
in ethanol, 278.15 K	0.00183
in ethanol, 283.15 K	0.00223
in ethanol, 288.15 K	0.00279
in ethanol, 293.15 K	0.00352
in ethanol, 298.15 K	0.0043
in ethanol, 303.15 K	0.00536
in ethanol, 308.15 K	0.00654
in ethanol, 313.15 K	0.00788
in ethanol, 318.15 K	0.00986
in ethanol, 323.15 K	0.0122
in ethanol, 328.15 K	0.0149
in ethanol, 333.15 K	0.0178
in ethyl acetate, 278.15 K	0.122
in ethyl acetate, 283.15 K	0.13
in ethyl acetate, 288.15 K	0.14
in ethyl acetate, 293.15 K	0.149
in ethyl acetate, 298.15 K	0.159
in ethyl acetate, 303.15 K	0.17
in ethyl acetate, 308.15 K	0.182
in ethyl acetate, 313.15 K	0.196
in ethyl acetate, 318.15 K	0.21
in ethyl acetate, 323.15 K	0.228
in ethyl acetate, 328.15 K	0.246
in ethyl acetate, 333.15 K	0.268
in ethylbenzene, 278.15 K	0.00564
in ethylbenzene, 283.15 K	0.00685
in ethylbenzene, 288.15 K	0.00784
in ethylbenzene, 293.15 K	0.00969
in ethylbenzene, 298.15 K	0.0118
in ethylbenzene, 303.15 K	0.0135
in ethylbenzene, 308.15 K	0.0163
in ethylbenzene, 313.15 K	0.0201
in ethylbenzene, 318.15 K	0.0238
in ethylbenzene, 323.15 K	0.0284
in ethylbenzene, 328.15 K	0.0343
in ethylbenzene, 333.15 K	0.0446
in isobutanol, 278.15 K	0.000842
in isobutanol, 283.15 K	0.00108
in isobutanol, 288.15 K	0.00139
in isobutanol, 293.15 K	0.00178
in isobutanol, 298.15 K	0.00229
in isobutanol, 303.15 K	0.00299
in isobutanol, 308.15 K	0.00383
in isobutanol, 313.15 K	0.00492
in isobutanol, 318.15 K	0.0063
in isobutanol, 323.15 K	0.00806
in isobutanol, 328.15 K	0.0102
in isobutanol, 333.15 K	0.0129
in isopropanol, 278.15 K	0.000901
in isopropanol, 283.15 K	0.00119
in isopropanol, 288.15 K	0.00153
in isopropanol, 293.15 K	0.00193
in isopropanol, 298.15 K	0.00252
in isopropanol, 303.15 K	0.00332
in isopropanol, 308.15 K	0.00424
in isopropanol, 313.15 K	0.00535
in isopropanol, 318.15 K	0.00683
in isopropanol, 323.15 K	0.00864
in isopropanol, 328.15 K	0.011
in isopropanol, 333.15 K	0.0138
in methanol, 278.15 K	0.00237
in methanol, 283.15 K	0.00274
in methanol, 288.15 K	0.00336
in methanol, 293.15 K	0.0043
in methanol, 298.15 K	0.00547
in methanol, 303.15 K	0.00695
in methanol, 308.15 K	0.00865
in methanol, 313.15 K	0.011
in methanol, 318.15 K	0.0136
in methanol, 323.15 K	0.017
in methanol, 328.15 K	0.0212
in methanol, 333.15 K	0.0262
in n-butanol, 278.15 K	0.00128
in n-butanol, 283.15 K	0.00147
in n-butanol, 288.15 K	0.0019
in n-butanol, 293.15 K	0.00241
in n-butanol, 298.15 K	0.00306
in n-butanol, 303.15 K	0.00388
in n-butanol, 308.15 K	0.00501
in n-butanol, 313.15 K	0.00643
in n-butanol, 318.15 K	0.00807
in n-butanol, 323.15 K	0.0102
in n-butanol, 328.15 K	0.0129
in n-butanol, 333.15 K	0.0159
in n-propanol, 278.15 K	0.00133
in n-propanol, 283.15 K	0.00165
in n-propanol, 288.15 K	0.00204
in n-propanol, 293.15 K	0.0026
in n-propanol, 298.15 K	0.00332
in n-propanol, 303.15 K	0.0042
in n-propanol, 308.15 K	0.00526
in n-propanol, 313.15 K	0.00673
in n-propanol, 318.15 K	0.00847
in n-propanol, 323.15 K	0.0107
in n-propanol, 328.15 K	0.0135
in n-propanol, 333.15 K	0.017
in toluene, 278.15 K	0.00791
in toluene, 283.15 K	0.00966
in toluene, 288.15 K	0.0117
in toluene, 293.15 K	0.0148
in toluene, 298.15 K	0.0177
in toluene, 303.15 K	0.0208
in toluene, 308.15 K	0.0252
in toluene, 313.15 K	0.0298
in toluene, 318.15 K	0.0354
in toluene, 323.15 K	0.0432
in toluene, 328.15 K	0.053
in toluene, 333.15 K	0.0657
in water, 278.15 K	1.5e-05
in water, 283.15 K	1.94e-05
in water, 288.15 K	2.48e-05
in water, 293.15 K	2.98e-05
in water, 298.15 K	3.55e-05
in water, 303.15 K	4.27e-05
in water, 308.15 K	5.2e-05
in water, 313.15 K	6.4e-05
in water, 318.15 K	7.89e-05
in water, 323.15 K	9.63e-05
in water, 328.15 K	0.000117
in water, 333.15 K	0.000142
